Assay results as given in US4454341A, “Naphthyl or tetrahydronaphthyl-substituted naphthoic acid and derivatives” (SRI International, priority 1983, dated 1984).

How the values were obtained:
[1] = test system: Ornithine Decarboxylase; assay: Ornithine decarboxylase (ODC) assay: inhibition of TPA induction of ODC in mouse skin; format: in vivo, mouse (female Charles River CD-1); conditions: topical, 1 hour before TPA (17 nmol)
Procedure: (§1) The ODC assay measures a compound's ability to prevent the induction of ODC. The tracheal organ culture assay measures a compound's ability to reverse keratinization.
The ODC assay is carried out as follows. Female Charles River CD-1 mice from Charles River Breeding Laboratories, Wilmington, Mass., are used (age 7 to 9 weeks). The dorsal hair of the mice is shaved 1 to 2 days before testing, and only mice showing no hair regrowth are used. A single dose of 12-O-tetradecanoylphorbol-13-acetate (TPA) (10.5 μg, 17 nmol) in 0.2 mL of acetone is applied topically to the back of each mouse. The test compound, at one of three dose levels (1.7, 17 and 170 nmol), dissolved in 0.2 mL of acetone is applied 1 hour before the TPA treatment to the test groups; the control group is treated with acetone alone. The mice are killed by cervical dislocations five hours after TPA treatment. Determinations are done in triplicate.
The epidermis is obtained from the sacrificed animals. To obtain sufficient material, the dorsal skins from 2 to 3 mice in each treatment group are pooled. The depilatory agent Nudit® (Helena Rubinstein, N.Y.) is applied to the shaved area of the skin; after 5 minutes, it is washed off thoroughly with cold tap water. Then the skin is excised and plunged immediately into ice-cold water; it is then placed in a 55° C. water bath for 30 seconds and reimmersed in ice-cold water for at least another 30 seconds. The skin is placed epidermis side up on a cold plate, and the epidermis is scraped off with a razor blade. The pooled epidermal sheets are homogenized (Polytron PT-10 homogenizer) at 0° to 4° C. for 15-20 seconds in 50 mM sodium phosphate and 0.1 mM ethylenediaminetetraacetic acid (EDTA), at a volume of 1 mL/skin.
The supernatant fraction remaining after centrifugation of the homogenate at 10,000×g for 30 seconds at 0° C. is used for the enzyme assay. Enzyme activity is determined using the microassay for ODC as described by Verma and Boutwell to measure the release of ^14 CO2 from DL-[1-^14 C]-ornithine (58 mCi/mmol) after incubation with the 10,000×g supernatant. The incubations are carried out by decanting, with a Pasteur pipette, 100 μL of the supernatant containing 100 to 120 μg of protein into two or three 15-mL Corex tubes in a shaking water bath at 37° C. The assay mixture in the tubes consists of 50 μL of 100 mM sodium phosphate buffer (pH 7.2), 10 μL of 4 mM pyridoxal phosphate, 40 μL of 25 mM dithiothreitol, and 1 μL of 0.1 M EDTA. The center wells in the tubes are filled with 200 μL of a 2:1 solution (v/v) of ethanolamine:2-methoxyethanol. The reaction is started by adding 50 μL of substrate (0.5 μCi of DL-[1-^14 C]-ornithine in 2 mM cold ornithine) at 1-minute intervals by injection to each of the stoppered tubes. Incubations are routinely carried out at 37° C. for 30 to 60 minutes. The reaction is stopped by addition of 0.5 ml of 2M citric acid, and incubation is continued for an additional hour without heating to ensure complete absorption of ^14 CO2.
Radioactivity is measured using a toluene-based scintillant (4 g of PPO and 50 mg of POPOP/L of toluene) in a Beckman LS-250 liquid scintillation counter. Enzyme activity is determined in triplicate and expressed as nanomoles of CO2 released in 30 minutes per milligram of protein. Enzyme activity is linear for the protein concentration used. The protein concentrations of the epidermal extracts are determined by the Lowry procedure, using bovine serum albumin as the standard.

[2] = test system: Hamster Tracheal Organ Culture (keratinization); assay: Tracheal organ culture assay (reversal of keratinization); format: cell-based; conditions: 10 days in culture
Procedure: as §1
The tracheal organ culture assay is carried out as follows. Tracheas are taken from hamsters that are in very early stages of vitamin A deficiency and placed in organ culture. At the time of culture, the animals are still gaining weight; the tracheal epithelium is generally low columnar or cuboidal, with only occasional patches of squamous metaplasia. Each trachea is opened from the larynxto the carina along the membranous dorsal wall and cultured in a serum-free medium (CMRL-1066; with crystalline bovine insulin, 0.1 μg/ml; hydrocortisone hemisuccinate, 0.1 μg/ml; glutamine, 2 mM; penicillin, 100 units/ml; and streptomycin, 100 μg/ml, added). Cultures are gassed with 50% oxygen, 45% nitrogen, and 5% CO2. The culture dishes are rocked at 35.5-36.0 degrees to allow the tracheas contact with both gas and medium. All tracheas are grown in medium containing no retinoid for the first 3 days. At the end of 3 days, some tracheas are harvested; almost all of these tracheas have significant squamous metaplasia, and approximately 60% have keratinized lesions. The remaining tracheas are then divided into different groups which are treated with either: (1) retinoid dissolved in dimethylsulfoxide (final concentration of DMSO in culture medium is never greater than 0.1%) or (2) an equivalent amount of DMSO alone. Culture medium is changed three times a week, and all of the remaining tracheas are harvested at the end of 10 days in culture. Tracheas are fixed in 10% buffered formalin and embedded in paraffin. Cross sections of five micrometers are made through the mid-portion, stained with hematoxylin and eosin, and then scored with a microscope for the presence of keratin and keratohyaline granules, both of which are found in approximately 90% of control cultures that received no retinoid for the entire 10 day culture period.

[3] = test system: ornithine decarboxylase (ODC); conditions: literature, copending application or unpublished data; cited from earlier work

Row | SMILES | Inhibition of Induction of Ornithine Decarboxylase by 12-O-Tetradecanoylphorbol-13-acetate in Mouse Skin, % Inhibition of Control ([1]; Dose 17 nmol) | Reversal of Keratinization in Hamster Tracheal Organ Culture, Active Cultures (%) ([2]; Conc 10^-8 M) | Reversal of Keratinization in Hamster Tracheal Organ Culture, Active/Total Cultures ([2]; Conc 10^-8 M) | Reversal of Keratinization in Hamster Tracheal Organ Culture, Active Cultures (%) ([2]; Conc 10^-9 M) | Reversal of Keratinization in Hamster Tracheal Organ Culture, Active/Total Cultures ([2]; Conc 10^-9 M) | Reversal of Keratinization in Hamster Tracheal Organ Culture, Active Cultures (%) ([2]; Conc 10^-10 M) | Reversal of Keratinization in Hamster Tracheal Organ Culture, Active/Total Cultures ([2]; Conc 10^-10 M) | activity in the ODC assay (in words) [3] | Inhibition of Induction of Ornithine Decarboxylase by 12-O-Tetradecanoylphorbol-13-acetate in Mouse Skin, % Inhibition of Control ([1]; Dose 1.7 nmol) [%] | Reversal of Keratinization in Hamster Tracheal Organ Culture, Active Cultures (%) ([2]; Conc 10^-11 M) | Reversal of Keratinization in Hamster Tracheal Organ Culture, Active/Total Cultures ([2]; Conc 10^-11 M)
1 | CC1=C(/C=C/C(C)=C/C=C/C(C)=C/C(=O)O)C(C)(C)CCC1 [Retinoic Acid] | 87-91% | 100 | 236/236 | 88 | 419/474 | 52 | 134/256 | – | – | – | –
2 | CCOC(=O)c1ccc(/C=C(\C)c2ccc3c(c2)C(C)(C)CCC3(C)C)cc1 [Ethyl 4-[(E)-2-(1,2,3,4-tetrahydro-1,1,4,4-tetramethyl-6-naphthyl)-1-propen-1-yl]benzoate] | 86% | – | – | – | – | – | – | exhibits activity in the ODC assay | 86 | – | –
3 | CC1=C(C=Cc2ccc3cc(C(=O)O)ccc3c2)C(C)(C)CCC1 [6-[2-(2,6,6-trimethyl-1-cyclohexen-1-yl)ethenyl]-2-naphthoic acid] | – | – | – | – | – | – | – | exhibited activity in the ODC assay | – | – | –
4 | CCOC(=O)c1ccc2cc(-c3ccc4c(c3)C(C)(C)CCC4(C)C)ccc2c1 [Ethyl 6-(1,2,3,4-tetrahydro-1,1,4,4-tetramethyl-6-naphthyl)-2-naphthoate] | 75% | – | – | – | – | – | – | – | 50 | – | –
5 | CC1(C)CCC(C)(C)c2cc(-c3ccc4cc(C(=O)O)ccc4c3)ccc21 [6-(1,2,3,4-Tetrahydro-1,1,4,4-tetramethyl-6-naphthyl)-2-naphthoic acid] | 80% | – | – | 100 | 7/7 | 100 | 7/7 | – | 56 | 71 | 5/7
